pEC50: −log10 of the molar value.
Assays:
[1] = target: T1, H723R-pendrin (Homo sapiens, UniProt O43511, H723R); assay: YFP fluorescence quenching assay (Cl−/I− exchange activity of pendrin); type: cell-based; conditions: PANC-1 cells stably expressing human H723R-pendrin and YFP-F46L/H148Q/I152L; compound incubation 20-24 hours; iodide influx
T1 construct: expressed in transfected cells; host or cells: PANC-1
T1 sequence (O43511 1-780 H723R): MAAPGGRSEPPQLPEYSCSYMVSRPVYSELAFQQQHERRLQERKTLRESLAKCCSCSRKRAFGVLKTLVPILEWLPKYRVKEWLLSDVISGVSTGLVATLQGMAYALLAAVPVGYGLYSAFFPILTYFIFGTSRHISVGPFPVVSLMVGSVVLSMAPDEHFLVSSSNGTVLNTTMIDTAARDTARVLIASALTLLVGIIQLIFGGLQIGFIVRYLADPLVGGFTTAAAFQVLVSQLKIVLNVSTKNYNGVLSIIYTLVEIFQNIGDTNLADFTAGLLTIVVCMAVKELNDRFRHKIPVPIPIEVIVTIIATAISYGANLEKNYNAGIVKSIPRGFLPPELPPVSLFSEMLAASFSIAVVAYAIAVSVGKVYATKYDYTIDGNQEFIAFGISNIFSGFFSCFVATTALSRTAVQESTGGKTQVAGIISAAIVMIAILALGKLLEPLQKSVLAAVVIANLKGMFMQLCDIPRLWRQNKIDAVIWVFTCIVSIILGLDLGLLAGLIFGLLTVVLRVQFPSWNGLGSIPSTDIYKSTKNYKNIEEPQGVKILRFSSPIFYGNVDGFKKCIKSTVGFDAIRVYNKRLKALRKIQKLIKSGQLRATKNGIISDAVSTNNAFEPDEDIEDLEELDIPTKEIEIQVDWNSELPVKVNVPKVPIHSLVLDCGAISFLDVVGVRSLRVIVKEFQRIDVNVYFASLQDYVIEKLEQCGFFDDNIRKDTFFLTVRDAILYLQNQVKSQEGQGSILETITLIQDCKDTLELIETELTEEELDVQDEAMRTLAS
How it was run: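 PANC-1 cells stably co-expressing human H723R-pendrin and YFP-F46L/H148Q/I152L, treated with compounds for 20-24 h at 37 °C. Initial iodide influx rate after NaI-substituted HEPES buffer (pH 7.4) addition, taken from the initial slope of YFP fluorescence quench by nonlinear regression. EC50 reported in bins.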

[2] = target: T2, H723R-hPDS (Homo sapiens, UniProt O43511, H723R); assay: Surface biotinylation assay; type: cell-based; conditions: Panc1 hPDS-H723R cells, 24 h treatment
T2 construct: expressed in transfected cells; host or cells: Panc1 (Panc1^hPDS-H723R)
T2 sequence (O43511 1-780 H723R): T1 sequence (O43511 1-780 H723R)
Source text: Surface biotinylation is a commonly used technique to specifically isolate plasma membrane proteins using a modified biotin in a form that is easy to bind with proteins. Sulfo-NHS-SS-biotin is a generally used reagent in surface biotinylation due to its impermeability and water solubility. In cool conditions, the extracellular domain of membrane proteins is covalently binding with the reactive biotin ester. These proteins are separated from the whole lysate via a biotin-streptavidin response. In this process, we can validate the increasing rate of the expression level of mutant pendrin in the plasma membrane.
Panc1^parental, Panc1^hPDS-WT and Panc1^hPDS-H723R cells were cultured in high glucose DMEM medium supplemented with 10% fetal bovine serum and 1% antibiotics. 24 hours after seeding in 6-well plates, cells were treated as indicated for 24 h. Cells were washed in PBS and incubated on ice with 0.3 mg/ml biotin in PBS. After 35 min, 1% BSA in PBS, D.W mixture (1:1) was added to cells, and cells were incubated for 10 min. Cells were washed and lysed in lysis buffer. The lysates were sonicated for 20 seconds, and not boiled. After centrifugated, the supernatants were collected and quantified via BCA analysis. The quantified supernatants were added to 10% avidin beads in PBS and incubated overnight at 4° C. After incubation, the below steps were repeated 4 times: i) centrifugation, ii) removing the supernatant, iii) washing with lysis buffer. After the last centrifugation and removing the supernatant, the sample buffer mixed with reducing buffer was added to biotin-avidin mixtures. The elution was accomplished in the 38° C. bioshaker for 40 min and the supernatant was collected. The supernatant was separated by SDS-PAGE and transferred to an Immobilon membrane. After incubation in 5% BSA solution to prevent nonspecific binding, the membrane was incubated with specific antibodies overnight. Then, the membrane was washed with TBST buffer and incubated with HRP-conjugated anti-rabbit or -mouse antibody for 1 hour. The ECL buffer and iBright were used for the visualization of protein bands. The respective protein band intensity was quantified by densitometric analysis using the NIH ImageJ program.
It is indicated as expression % with the following key: A=Expression % greater than 100%; B=Expression % greater than 50%, but less than 100%; C=Expression % less than 50%.

SMILES: COc1cc(-c2nccc(C3=C(N)N(CC4CCCC4)CC3=O)n2)ccc1O [Compound 105]
- pEC50 [1]: > 5.30
- Surface expression % of H723R-hPDS relative to WT-hPDS (Glycosylated form pendrin) ([2]; 3 uM): A (A=Expression % greater than 100%)
- Surface expression % of H723R-hPDS relative to WT-hPDS (Glycosylated form pendrin) ([2]; 10 uM): A (A=Expression % greater than 100%)

SMILES: NC1=C(c2cncc(-c3ccc(O)c(O)c3)n2)C(=O)CN1CC1CCCC1 [Compound 18]
- pEC50 [1]: > 5.30
- Surface expression % of H723R-hPDS relative to WT-hPDS (Glycosylated form pendrin) ([2]; 3 uM): A (A=Expression % greater than 100%)
- Surface expression % of H723R-hPDS relative to WT-hPDS (Glycosylated form pendrin) ([2]; 10 uM): A (A=Expression % greater than 100%)

SMILES: NC1=C(c2cncc(-c3ccc(O)c(O)c3)n2)C(=O)CN1c1ccccc1Cl [Compound 9]
- pEC50 [1]: > 5.30
- Surface expression % of H723R-hPDS relative to WT-hPDS (Glycosylated form pendrin) ([2]; 3 uM): A (A=Expression % greater than 100%)
- Surface expression % of H723R-hPDS relative to WT-hPDS (Glycosylated form pendrin) ([2]; 10 uM): A (A=Expression % greater than 100%)
